Where two headings read alike, the source gives them in different places.
Tests used:
[1] = target: T1, recombinant mouse sEH (MsEH) (Mus musculus, UniProt P34914); assay: Inhibition of recombinant mouse sEH (MsEH); format: biochemical
T1 sequence (P34914 1-554): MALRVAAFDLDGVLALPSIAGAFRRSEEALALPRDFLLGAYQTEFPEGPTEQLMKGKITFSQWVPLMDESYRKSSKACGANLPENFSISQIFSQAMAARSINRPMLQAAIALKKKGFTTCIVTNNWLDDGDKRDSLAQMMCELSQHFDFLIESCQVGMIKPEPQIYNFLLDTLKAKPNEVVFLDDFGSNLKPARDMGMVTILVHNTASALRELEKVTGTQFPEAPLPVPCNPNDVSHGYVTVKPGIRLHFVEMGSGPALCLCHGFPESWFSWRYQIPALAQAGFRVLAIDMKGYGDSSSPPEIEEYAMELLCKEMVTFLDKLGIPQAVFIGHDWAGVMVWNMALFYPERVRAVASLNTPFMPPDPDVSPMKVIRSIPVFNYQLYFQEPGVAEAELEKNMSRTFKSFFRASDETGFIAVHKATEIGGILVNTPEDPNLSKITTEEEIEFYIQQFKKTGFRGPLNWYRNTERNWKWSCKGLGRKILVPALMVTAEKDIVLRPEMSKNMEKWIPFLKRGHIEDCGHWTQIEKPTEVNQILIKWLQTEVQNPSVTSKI

Human sEH (HsEH) = target: T2, Human sEH (HsEH) (Homo sapiens, UniProt P34913); assay: Inhibition of recombinant human sEH (HsEH); format: biochemical; details: HsEH 0.26 μM
T2 sequence (P34913 1-555): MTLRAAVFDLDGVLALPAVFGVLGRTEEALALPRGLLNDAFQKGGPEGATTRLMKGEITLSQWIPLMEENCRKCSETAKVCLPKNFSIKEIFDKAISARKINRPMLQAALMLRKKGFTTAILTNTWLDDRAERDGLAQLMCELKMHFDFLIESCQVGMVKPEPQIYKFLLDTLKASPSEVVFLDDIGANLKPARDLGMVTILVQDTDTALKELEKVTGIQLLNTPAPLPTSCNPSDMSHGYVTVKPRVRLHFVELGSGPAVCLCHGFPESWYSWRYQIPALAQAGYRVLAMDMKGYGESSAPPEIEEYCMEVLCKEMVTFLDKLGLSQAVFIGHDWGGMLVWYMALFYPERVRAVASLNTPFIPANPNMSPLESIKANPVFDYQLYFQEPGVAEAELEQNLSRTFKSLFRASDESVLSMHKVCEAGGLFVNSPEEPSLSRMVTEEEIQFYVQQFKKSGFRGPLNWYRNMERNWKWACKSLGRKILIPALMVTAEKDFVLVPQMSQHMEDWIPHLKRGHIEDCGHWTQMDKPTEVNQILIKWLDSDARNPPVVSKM

[2] = Table 1, MsEH 0.13 μM, read-out: Mouse sEH IC50
[3] = Table 2, MsEH 0.13 μM, read-out: Mouse sEH IC50

SMILES	IC50 [1, 2] [µM]	IC50 (Human sEH (HsEH); Table 1) [µM]	IC50 [1, 3] [µM]	IC50 (Human sEH (HsEH); Table 2) [µM]	IC50 [1] [µM]
O=C(Nc1c2ccccc2nc2ccccc12)NC1CCCCC1 [compound 559]	0.08 ± 0.01	0.14 ± 0.01			
O=C(Nc1ccc(F)cc1)NC1CCCCC1 [compound 60]	0.78 ± 0.02	0.43 ± 0.02			
[O-][S+](c1ccccc1)C1OC1c1ccccc1 (racemic) [R=C6H5, R′=C6H5, X—Y=S═O, ±]			2.3 ± 0.4	0.31 ± 0.02	
CN(C)c1ccc(NC(=O)NC2CCCCC2)cc1 [compound 362]	0.05 ± 0.01	1.5 ± 0.1			
O=C(NCCCCc1ccccc1)NC1CCCCC1 [compound 105]	0.05 ± 0.01	0.58 ± 0.03			
CCCCCCCCNC(=O)NCCCCC [compound 125]	0.09 ± 0.01	0.72 ± 0.02			
CCCCCCCCNC(=O)Nc1cccc(Cl)c1 [compound 170]	0.12 ± 0.01	0.18 ± 0.01			
O=C(c1ccccc1)C1OC1c1ccc(-c2ccccc2)cc1 (racemic) [R=4-C6H5—C6H4, R′=C6H5, X—Y=C═O, ±]			0.14 ± 0.01	0.2 ± 0.01	
CCCCCCCCNC(=O)NC1CCC1 [compound 181]	0.52 ± 0.02	1.71 ± 0.23			
O=C(NCC12CC3CC(CC(C3)C1)C2)NC12CC3CC(CC(C3)C1)C2 [compound 412]	0.05 ± 0.01	0.1 ± 0.01			
CCCCCCCCCCCNC(=O)NCCCC [compound 556]	0.2 ± 0.02	0.74 ± 0.07			
O=C(Nc1ccc(Br)cc1)NC1CCCCC1 [compound 65]	0.17 ± 0.01	0.11 ± 0.01			
CC(C)(C)CC(C)(C)NC(=O)NC1C2CC3CC(C2)CC1C3 (stereo not shown) [compound 375]	0.18 ± 0.01	0.11 ± 0.01			
O=C(Nc1ccc(Cl)cc1)Nc1ccc(Cl)c(Cl)c1		0.12 ± 0.01			0.36 ± 0.02
O=C(NC1CCCCC1)NC1CC2CCC1C2 (stereo not shown) [compound 543]	0.05 ± 0.01	0.1 ± 0.01			
O=C(NCc1ccc([N+](=O)[O-])cc1)NC1CCCCC1 [compound 341]	2.3 ± 0.3	4.3 ± 0.4			
CC(C)c1ccc(NC(=O)NCCc2ccccc2)cc1 [compound 156]	0.2 ± 0.01	0.48 ± 0.01			
O=C(NC1CCCCC1)OC1CCCCC1 [compound 42]	0.06 ± 0.01	0.13 ± 0.01			
O=C(O)CCCCCCCCCCCNC(=O)NC1CCCCC1 [compound 425]	0.05 ± 0.01	0.1 ± 0.01			

SMILES	IC50 [1, 2] [µM]	IC50 (Human sEH (HsEH); Table 1) [µM]	IC50 [1, 3] [µM]	IC50 (Human sEH (HsEH); Table 2) [µM]	IC50 [1] [µM]
O=C(NCCCCCCO)NC1CCCCC1 [compound 344]	0.05 ± 0.01	2.5 ± 0.08			
O=C(NC1CCCCC1)OCc1cccc2ccccc12 [compound 262]	0.05 ± 0.01	0.1 ± 0.02			
COc1ccc(CCNC(=O)NC2CCCCC2)cc1OC [compound 384]	0.05 ± 0.01	1 ± 0.2			
O=C(Nc1ccc([N+](=O)[O-])cc1)NC1CCCCC1 [compound 38]	0.17 ± 0.01	0.36 ± 0.02			
CCCCCNC(=O)NC1CCCCC1 [compound 509]	0.06 ± 0.01	0.92 ± 0.08			
O=C(NCCC1=CCCCC1)NCc1ccccc1 [compound 471]	0.25 ± 0.03	2.2 ± 0.1			
O=C(NCCC1=CCCCC1)NC1CCCCC1 [compound 359]	0.05 ± 0.01	0.1 ± 0.01			
CCCCCCCCNC(=O)NCCC [compound 380]	0.73 ± 0.03	0.68 ± 0.03			
OC(c1ccccc1)C1OC1c1ccccc1 (racemic) [R=C6H5, R′=C6H5, X—Y=CH—OH, ±]			12.6 ± 0.9	22 ± 2	
CC1CCCCC1NC(=O)NC1CCCCC1 (stereo not shown) [compound 551]	0.05 ± 0.01	0.1 ± 0.01			
CC(C)(C)c1ccc(NC(=O)NC2CCCCC2)cc1 [compound 75]	0.06 ± 0.01	0.23 ± 0.01			
CCOC(CCCNC(=O)Nc1cccc(Cl)c1)OCC [compound 167]	0.39 ± 0.02	3.77 ± 0.03			
O=C(NCC1CCCCC1)Nc1ccc2ccccc2c1 [compound 169]	0.06 ± 0.01	0.13 ± 0.01			
CCCCCCNC(=O)NC1CCCCC1 [compound 286]	0.11 ± 0.03	0.07 ± 0.02			
COc1ccc(NC(=O)NC2CCCCC2)cc1 [compound 67]	0.71 ± 0.04	0.23 ± 0.01			
CCCCCCNC(=O)Nc1ccc(C(C)C)cc1 [compound 287]	0.09 ± 0.01	0.1 ± 0.01			
CCCCCCCCCCCCCCNC(=O)NC1CCCCC1 [compound 477]	0.11 ± 0.01	0.24 ± 0.01			
O=C(NCc1ccc(Cl)cc1)NC1CCCCC1 [compound 193]	0.05 ± 0.01	0.19 ± 0.01			
CC1CCC(NC(=O)NC2CCCCC2)CC1 (stereo not shown) [compound 538]	0.05 ± 0.01	0.1 ± 0.01			

SMILES	IC50 [1, 2] [µM]	IC50 (Human sEH (HsEH); Table 1) [µM]	IC50 [1, 3] [µM]	IC50 (Human sEH (HsEH); Table 2) [µM]	IC50 [1] [µM]
O=C(NC1CCCCC1)OC1C2CC3CC(C2)CC1C3 (stereo not shown) [compound 260]	0.06 ± 0.01	0.1 ± 0.01			
OC(c1ccccc1)C1OC1c1ccc(-c2ccccc2)cc1 (racemic) [R=4-C6H5—C6H4, R′=C6H5, X—Y=CH—OH, ±]			0.51 ± 0.04	0.72 ± 0.03	
O=C(NCCc1ccc(Cl)cc1)NC1CCCCC1 [compound 361]	0.07 ± 0.02	0.2 ± 0.02			
CCCNC(=O)NC1CCCCCCCCCCC1 [compound 189]	0.8 ± 0.03	1 ± 0.2			
O=C(NC1CCCCC1)OCCCCc1ccc([N+](=O)[O-])cc1 [compound 460]	0.1 ± 0.02	0.18 ± 0.01			
CCNC(=O)OC1CCCCC1 [compound 255]		2.88 ± 0.04			0.48 ± 0.07
CC(C)(C)OC(=O)NCCNC(=O)NC1CCCCC1 [compound 124]	0.05 ± 0.01	0.14 ± 0.01			
O=C(NC(=O)c1ccc(Cl)cc1)NC1CCCCC1 [compound 257]	0.05 ± 0.01	0.1 ± 0.04			
CCCCCCCCCNC(=O)NC1CCCCC1 [compound 473]	0.05 ± 0.01	0.1 ± 0.01			
O=C(NC1CCCCCCCCCCC1)NC12CC3CC(CC(C3)C1)C2 [compound 413]	0.05 ± 0.01	0.1 ± 0.01			
O=C(CC1CCCCC1)NC1CCCCC1 [compound 187]	0.05 ± 0.01	0.42 ± 0.03			
O=C(NCC1CCCCC1)NC12CC3CC(CC(C3)C1)C2 [compound 437]	0.05 ± 0.01	0.1 ± 0.01			
CC(C)CNC(=O)NC1CCCCC1 [compound 103]	0.12 ± 0.01	2.2 ± 0.1			
O=C(NC1CCCCC1)NC1CCCc2ccccc21 (stereo not shown) [compound 434]	0.05 ± 0.01	0.1 ± 0.01			
COC(c1ccccc1)C1OC1c1ccccc1 (racemic) [R=C6H5, R′=C6H5, X—Y=CH—OCH3, ±]			103 ± 5	34 ± 1	
Cc1ccc(C(=O)C2OC2c2ccc(-c3ccccc3)cc2)cc1 (racemic) [R=4-C6H5—C6H4, R′=4-CH3—C6H4, X—Y=C═O, ±]			0.1 ± 0.01	0.19 ± 0.03	
O=C(NC12CC3CC(CC(C3)C1)C2)NC12CC3CC(CC(C3)C1)C2 [compound 411]	0.05 ± 0.01	0.1 ± 0.01			
OC(c1ccccc1)C1OC1c1ccc(F)cc1 (racemic) [R=4-F-C6H4, R′=C6H5, X—Y=CH—OH, ±]			72 ± 16	18 ± 2	

— US6756210B2, “Linoleic acid diol and glucuronide conjugate levels as diagnostic markers of disorders of abnormal regulation of cytochrome P450 metabolism of unsaturated fatty acids” (The Regents of the University of California, priority 2001, dated 2004)
